Patent US20230086702A1, “SUBSTITUTED 2-AMINO-PYRAZOLYL-[1,2,4]TRIAZOLO[1,5A]PYRIDINE DERIVATIVES AND USE THEREOF” (The Johns Hopkins University, priority 2019, published 2023)

Legend:
[1] = molecular target: T1, LZK (Homo sapiens, UniProt O43283); assay: LZK biochemical assay (TR-FRET, MKK7 phosphorylation)
T1 construct: 10 nM LZK, catalytic domain, Carna Biosiences in assay buffer; purchased Carna Biosciences ('Carna Biosiences' [sic])
T1 sequence (O43283 168-409 limits assumed): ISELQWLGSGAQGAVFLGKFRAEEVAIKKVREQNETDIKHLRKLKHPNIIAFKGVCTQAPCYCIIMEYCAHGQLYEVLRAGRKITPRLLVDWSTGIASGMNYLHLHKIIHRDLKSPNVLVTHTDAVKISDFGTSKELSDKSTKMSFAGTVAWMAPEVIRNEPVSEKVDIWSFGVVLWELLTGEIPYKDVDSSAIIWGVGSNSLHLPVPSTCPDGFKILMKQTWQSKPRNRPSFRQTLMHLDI
Procedure, shortened: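 Read-out is HTRF: Eu-labelled anti-phospho-MKK7 (T275/S277) and XL665 anti-His, incubated 16 h at 32 °C, with a drop in signal marking inhibition. Reaction beforehand: 10 nM LZK kinase domain, 15 nM His-MKK7, 15 µM ATP (final) for 90 min at room temperature, pH 7.5.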

[2] = molecular target: T2, DLK (Homo sapiens, UniProt Q12852); assay: DLK biochemical assay (TR-FRET, MKK7 phosphorylation)
T2 construct: 10 nM DLK, catalytic domain, Carna Biosiences; purchased Carna Biosciences ('Carna Biosiences' [sic])
T2 sequence (Q12852 125-366 limits assumed): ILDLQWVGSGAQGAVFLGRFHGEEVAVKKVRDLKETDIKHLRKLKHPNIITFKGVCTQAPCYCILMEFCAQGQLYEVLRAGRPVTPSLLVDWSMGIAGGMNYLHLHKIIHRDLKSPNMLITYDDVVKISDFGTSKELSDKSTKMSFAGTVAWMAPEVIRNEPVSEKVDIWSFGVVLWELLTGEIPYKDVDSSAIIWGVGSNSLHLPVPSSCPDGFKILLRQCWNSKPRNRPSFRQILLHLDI
Procedure, shortened: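 TR-FRET read-out (665/Eu ratio) of MKK7 T275/S277 phosphorylation, with inhibition lowering the signal. Final conditions: 10 nM DLK catalytic domain, 15 nM MKK7, 60 μM ATP, 90 min at RT. Detection incubation 16 h at 37° C in 1536-well or 4° C in 384-well format.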

Compound | IC50 [1] | IC50 [2]
CCC(c1ccc(C(F)(F)F)nc1)n1cc(-c2cc(-c3ccc(C(F)(F)F)nc3)c3nc(N)nn3c2)cn1 (single isomer, unassigned) [II-38, 8-[6-(Trifluoromethyl)pyridin-3-yl]-6-(1-{1-[6-(trifluoromethyl)pyridin-3-yl]propyl}-1H-pyrazol-4-yl)[1,2,4]triazolo[1,5-a]pyridin-2-amine] | 120 nM | 56 nM
CCC(c1ccc(C(F)(F)F)nc1)n1cc(-c2cc(-c3ccc(C(F)(F)F)nc3)c3nc(N)nn3c2)cn1 (single isomer, unassigned) [II-39, 8-[6-(Trifluoromethyl)pyridin-3-yl]-6-(1-{1-[6-(trifluoromethyl)pyridin-3-yl]propyl}-1H-pyrazol-4-yl)[1,2,4]triazolo[1,5-a]pyridin-2-amine] | 52 nM | 24 nM
CC(C)C(c1ccc(C(F)(F)F)nc1)n1cc(-c2cc(-c3ccc(C(F)(F)F)nc3)c3nc(N)nn3c2)cn1 (single isomer, unassigned) [II-41, 6-(1-{2-Methyl-1-[6-(trifluoromethyl)pyridin-3-yl]propyl}-1H-pyrazol-4-yl)-8-[6-(trifluoromethyl)pyridin-3-yl][1,2,4]triazolo[1,5-a]pyridin-2-amine] | 770 nM | 380 nM
CC(C)C(c1ccc(C(F)(F)F)nc1)n1cc(-c2cc(-c3ccc(C(F)(F)F)nc3)c3nc(N)nn3c2)cn1 (single isomer, unassigned) [II-42, 6-(1-{2-Methyl-1-[6-(trifluoromethyl)pyridin-3-yl]propyl}-1H-pyrazol-4-yl)-8-[6-(trifluoromethyl)pyridin-3-yl][1,2,4]triazolo[1,5-a]pyridin-2-amine] | 52 nM | 18 nM
CC(C)C(c1ccc(C(F)(F)F)nc1)n1cc(-c2cc(-c3ccc(C4CC4)nc3)c3nc(N)nn3c2)cn1 (single isomer, unassigned) [II-44] | 100 nM | 60 nM
CC(C)C(c1ccc(C(F)(F)F)nc1)n1cc(-c2cc(-c3ccc(C4CC4)nc3)c3nc(N)nn3c2)cn1 (single isomer, unassigned) [II-45, 8-(6-Cyclopropylpyridin-3-yl)-6-(1-{2-methyl-1-[6-(trifluoromethyl)pyridin-3-yl]propyl}-1H-pyrazol-4-yl)[1,2,4]triazolo[1,5-a]pyridin-2-amine] | 10 nM | 9.5 nM
CC(C)C(c1ccc(C(F)F)nc1)n1cc(-c2cc(-c3ccc(OC(F)F)nc3)n3nc(N)nc3c2)cn1 (single isomer, unassigned) [II-50, 5-[6-(Difluoromethoxy)pyridin-3-yl]-7-(1-{1-[6-(difluoromethyl)pyridin-3-yl]-2-methylpropyl}-1H-pyrazol-4-yl)[1,2,4]triazolo[1,5-a]pyridin-2-amine] | 270 nM | 280 nM
CC(C)C(c1ccc(C(F)F)nc1)n1cc(-c2cc(-c3ccc(OC(F)F)nc3)n3nc(N)nc3c2)cn1 (single isomer, unassigned) [II-51, 5-[6-(Difluoromethoxy)pyridin-3-yl]-7-(1-{1-[6-(difluoromethyl)pyridin-3-yl]-2-methylpropyl}-1H-pyrazol-4-yl)[1,2,4]triazolo[1,5-a]pyridin-2-amine] | 25 nM | 13 nM
CC(C)C(c1ccc(C(F)F)nc1)n1cc(-c2cc(-c3ccc(C4CC4)nc3)n3nc(N)nc3c2)cn1 (single isomer, unassigned) [II-53, 5-(6-Cyclopropylpyridin-3-yl)-7-(1-{1-[6-(difluoromethyl)pyridin-3-yl]-2-methylpropyl}-1H-pyrazol-4-yl)[1,2,4]triazolo[1,5-a]pyridin-2-amine] | 48 nM | 33 nM
CC(C)C(c1ccc(C(F)F)nc1)n1cc(-c2cc(-c3ccc(C4CC4)nc3)n3nc(N)nc3c2)cn1 (single isomer, unassigned) [II-54, 5-(6-Cyclopropylpyridin-3-yl)-7-(1-{1-[6-(difluoromethyl)pyridin-3-yl]-2-methylpropyl}-1H-pyrazol-4-yl)[1,2,4]triazolo[1,5-a]pyridin-2-amine] | 8.9 nM | 4 nM
CCC(c1ccc(C(F)(F)F)nc1)n1cc(-c2cc(-c3ccc(C4CC4)nc3)n3nc(N)nc3c2)cn1 (single isomer, unassigned) [II-56, 5-(6-Cyclopropylpyridin-3-yl)-7-(1-{1-[6-(trifluoromethyl)pyridin-3-yl]propyl}-1H-pyrazol-4-yl)[1,2,4]triazolo[1,5-a]pyridin-2-amine] | 56 nM | 37 nM
CCC(c1ccc(C(F)(F)F)nc1)n1cc(-c2cc(-c3ccc(C4CC4)nc3)n3nc(N)nc3c2)cn1 (single isomer, unassigned) [II-57, 5-(6-Cyclopropylpyridin-3-yl)-7-(1-{1-[6-(trifluoromethyl)pyridin-3-yl]propyl}-1H-pyrazol-4-yl)[1,2,4]triazolo[1,5-a]pyridin-2-amine] | 14 nM | 18 nM
CC(C)C(c1ccc(C(F)(F)F)nc1)n1cc(-c2cc(-c3ccc(C4CC4)nc3)n3nc(N)nc3c2)cn1 (single isomer, unassigned) [II-59, 5-(6-Cyclopropylpyridin-3-yl)-7-(1-{2-methyl-1-[6-(trifluoromethyl)pyridin-3-yl]propyl}-1H-pyrazol-4-yl)[1,2,4]triazolo[1,5-a]pyridin-2-amine] | 190 nM | 92 nM
CC(C)C(c1ccc(C(F)(F)F)nc1)n1cc(-c2cc(-c3ccc(C4CC4)nc3)n3nc(N)nc3c2)cn1 (single isomer, unassigned) [II-60, 5-(6-Cyclopropylpyridin-3-yl)-7-(1-{2-methyl-1-[6-(trifluoromethyl)pyridin-3-yl]propyl}-1H-pyrazol-4-yl)[1,2,4]triazolo[1,5-a]pyridin-2-amine] | 7.9 nM | 11 nM
CCC(c1ccc(C(F)F)nc1)n1cc(-c2cc(-c3ccc(C(F)(F)F)nc3)n3nc(N)nc3c2)cn1 (single isomer, unassigned) [II-62, 7-(1-{1-[6-(Difluoromethyl)pyridin-3-yl]propyl}-1H-pyrazol-4-yl)-5-[6-(trifluoromethyl)pyridin-3-yl][1,2,4]triazolo[1,5-a]pyridin-2-amine] | 220 nM | 440 nM
CCC(c1ccc(C(F)F)nc1)n1cc(-c2cc(-c3ccc(C(F)(F)F)nc3)n3nc(N)nc3c2)cn1 (single isomer, unassigned) [II-63, 7-(1-{1-[6-(Difluoromethyl)pyridin-3-yl]propyl}-1H-pyrazol-4-yl)-5-[6-(trifluoromethyl)pyridin-3-yl][1,2,4]triazolo[1,5-a]pyridin-2-amine] | 51 nM | 97 nM
CC(C)C(c1ccc(C(F)F)nc1)n1cc(-c2cc(-c3ccc(C(F)(F)F)nc3)n3nc(N)nc3c2)cn1 (single isomer, unassigned) [II-65, 7-(1-{1-[6-(Difluoromethyl)pyridin-3-yl]-2-methylpropyl}-1H-pyrazol-4-yl)-5-[6-(trifluoromethyl)pyridin-3-yl][1,2,4]triazolo[1,5-a]pyridin-2-amine] | 210 nM | 440 nM
CC(C)C(c1ccc(C(F)F)nc1)n1cc(-c2cc(-c3ccc(C(F)(F)F)nc3)n3nc(N)nc3c2)cn1 (single isomer, unassigned) [II-66, 7-(1-{1-[6-(Difluoromethyl)pyridin-3-yl]-2-methylpropyl}-1H-pyrazol-4-yl)-5-[6-(trifluoromethyl)pyridin-3-yl][1,2,4]triazolo[1,5-a]pyridin-2-amine] | 43 nM | 45 nM
CCC(c1ccc(C(F)F)nc1)n1cc(-c2cc(-c3ccc(C4CC4)nc3)n3nc(N)nc3c2)cn1 (single isomer, unassigned) [II-68, 5-(6-Cyclopropylpyridin-3-yl)-7-(1-{1-[6-(difluoromethyl)pyridin-3-yl]propyl}-1H-pyrazol-4-yl)[1,2,4]triazolo[1,5-a]pyridin-2-amine] | 86 nM | 36 nM
CCC(c1ccc(C(F)F)nc1)n1cc(-c2cc(-c3ccc(C4CC4)nc3)n3nc(N)nc3c2)cn1 (single isomer, unassigned) [II-69, 5-(6-Cyclopropylpyridin-3-yl)-7-(1-{1-[6-(difluoromethyl)pyridin-3-yl]propyl}-1H-pyrazol-4-yl)[1,2,4]triazolo[1,5-a]pyridin-2-amine] | 9.4 nM | 4.8 nM
CC(C)C(c1ccc(C(F)(F)F)nc1)n1cc(-c2cc(-c3ccc(C(F)F)nc3)n3nc(N)nc3c2)cn1 (single isomer, unassigned) [II-71, 5-[6-(Difluoromethyl)pyridin-3-yl]-7-(1-{2-methyl-1-[6-(trifluoromethyl)pyridin-3-yl]propyl}-1H-pyrazol-4-yl)[1,2,4]triazolo[1,5-a]pyridin-2-amine] | 74 nM | 160 nM
